Test results reported in patent US9302999B2, “Substituted triazoles as herbicides” (E. I. DU PONT DE NEMOURS AND COMPANY, priority 2012, dated 2016).

Key:
Format in all cases: in vivo
[1] = system: barnyardgrass (Echinochloa crus-galli); test: Test F pre-/postemergence: barnyardgrass
From the text: (§1) Seeds of plant species selected from corn (Zea mays), soybean (Glycine max), velvetleaf (Abutilon theophrasti), lambsquarters (Chenopodium album), poinsettia, wild (wild poinsettia, Euphorbia heterophylla), pigweed, palmer (palmer pigweed, Amaranthus palmeri), waterhemp (common waterhemp, Amaranthus rudis), surinam grass (Brachiaria decumbens), crabgrass, Brazil (Brazilian crabgrass, Digitaria horizontalis), panicum, fall (fall panicum Panicum dichotomiflorum), crabgrass, large (large crabgrass, Digitaria sanguinalis), foxtail, giant (giant foxtail, Setaria faberii), foxtail, green (green foxtail Setaria viridis), goosegrass (Eleusine indica), ragweed (common ragweed, Ambrosia elatior), barnyardgrass (Echinochloa crus-galli), sandbur (southern sandbur, Cenchrus echinatus), arrowleaf sida (Sida rhombifolia), ryegrass, Italian (Italian ryegrass, Lolium multiflorum), dayflower, VA (Virginia (VA) dayflower, Commelina virginica), field bindweed (Convolvulus arvensis), cocklebur (common cocklebur, Xanthium strumarium), morningglory (Ipomoea coccinea), nightshade (eastern black nightshade, Solanum ptycanthum), kochia (Kochia scoparia), nutsedge, yellow (yellow nutsedge, Cyperus esculentus), johnsongrass (Sorghum halepense), smartweed (ladysthumb smartweed, Polygonum persicaria), and beggarticks (hairy beggarticks, Bidens pilosa), were planted into a silt loam soil and treated preemergence with test chemicals formulated in a non-phytotoxic solvent mixture which included a surfactant. At the same time, plants selected from these crop and weed species and also pigweed (Amaranthus retroflexus), waterhemp_RES1 (ALS/Triazine resistant common waterhemp, Amaranthus rudis) and waterhemp_RES2 (ALS/HPPD resistant common waterhemp, Amaranthus rudis) were planted in pots containing a planting medium comprising spaghnum peat moss, vermiculite, wetting agent and starter nutrients treated with postemergence applications of some of the test chemicals formulated in the same manner. Plants ranged in height from 2 to 18 cm for postemergence treatments (1- to 4-leaf stage).
(§2) Treated plants and controls were maintained in a greenhouse for 14 to 21 days, after which time all species were compared to controls and visually evaluated. Plant response ratings, summarized in Table E, are based on a scale of 0 to 100 where 0 is no effect and 100 is complete control. A dash (-) response means no test result.

[2] = system: arrowleaf sida (Sida rhombifolia); test: Test F pre-/postemergence: arrowleaf sida
From the text: as §1, §2

[3] = system: beggarticks (hairy beggarticks, Bidens pilosa); test: Test F pre-/postemergence: beggarticks
From the text: as §1, §2

[4] = system: lambsquarters (Chenopodium album); test: Test F pre-/postemergence: lambsquarters; conditions: Preemergence
From the text: as §1, §2

[5] = system: ducksalad (Heteranthera limosa); test: Test C flooded paddy test: ducksalad; conditions: scale 0 to 100 (0 no effect, 100 complete control)
Method in brief: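 Greenhouse plants treated at the 2-leaf stage by dosing the flood water (3 cm depth, maintained) were compared with controls after 13 to 15 days and rated 0 to 100, where 100 means complete control; a dash marks no test result.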

[6] = system: galium (catchweed bedstraw, Galium aparine); test: Test D pre-/postemergence: galium; conditions: Postemergence
Method in brief: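 Scores run from 0 (no effect) to 100 (complete control), assigned by visual comparison with controls after 14 to 21 days in a controlled environment. Both preemergence application to silt loam and postemergence application to 1- to 4-leaf plants were tested.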

[7] = system: chamomile (scentless chamomile, Matricaria inodora); test: Test D pre-/postemergence: chamomile; conditions: Postemergence
From the text: Seeds of plant species selected from bluegrass (annual bluegrass, Poa annua), blackgrass (Alopecurus myosuroides), canarygrass (Phalaris minor), chickweed (common chickweed, Stellaria media), galium (catchweed bedstraw, Galium aparine), bromegrass, downy (downy bromegrass, Bromus tectorum), field poppy (Papaver rhoeas), field violet (Viola arvensis), foxtail, green (green foxtail, Setaria viridis), deadnettle (henbit deadnettle, Lamium amplexicaule), ryegrass, Italian (Italian ryegrass, Lolium multiflorum), kochia (Kochia scoparia), lambsquarters (Chenopodium album), oilseed rape (Brassica napus), pigweed (Amaranthus retroflexus), Russian thistle (Salsola iberica), chamomile (scentless chamomile, Matricaria inodora), speedwell (bird's-eye speedwell, Veronica persica), barley, spring (spring barley, Hordeum vulgare), wheat, spring (spring wheat, Triticum aestivum), buckwheat, wild (wild buckwheat, Polygonum convolvulus), mustard, wild (wild mustard, Sinapis arvensis), oat, wild (wild oat, Avena fatua), radish, wild (wild radish, Raphanus raphanistrum), windgrass (Apera spica-venti), barley, winter (winter barley, Hordeum vulgare), and wheat, winter (winter wheat, Triticum aestivum) were planted into a silt loam soil and treated preemergence with test chemicals formulated in a non-phytotoxic solvent mixture which included a surfactant. At the same time, these same crop and weed species were planted in pots containing the planting medium comprising spaghnum peat moss, vermiculite, wetting agent and starter nutrients and treated with postemergence applications of the test chemicals formulated in the same manner. Plants ranged in height from 2 to 18 cm (1- to 4-leaf stage).
Treated plants and controls were maintained in a controlled growth environment for 14 to 21 days after which time all species were compared to controls and visually evaluated. Plant response ratings, summarized in Table D, are based on a scale of 0 to 100 where 0 is no effect and 100 is complete control. A dash (-) response means no test result.

[8] = Postemergence, 8 g ai/ha, scale 0 to 100
[9] = Postemergence, 16 g ai/ha, scale 0 to 100
[10] = Postemergence, 31 g ai/ha, scale 0 to 100
[11] = Postemergence, 62 g ai/ha, scale 0 to 100
[12] = Postemergence, 125 g ai/ha, scale 0 to 100
[13] = 16 g ai/ha, scale 0 to 100, 0 no effect, 100 complete control
[14] = 31 g ai/ha, scale 0 to 100, 0 no effect, 100 complete control
[15] = Preemergence, 16 g ai/ha, scale 0 to 100, 0 no effect, 100 complete control
[16] = Preemergence, 31 g ai/ha, scale 0 to 100, 0 no effect, 100 complete control
[17] = Preemergence, 62 g ai/ha, scale 0 to 100
[18] = Preemergence, 125 g ai/ha, scale 0 to 100
[19] = Preemergence, 250 g ai/ha, scale 0 to 100
[20] = 31 g ai/ha, scale 0 to 100 (0 no effect, 100 complete control)
[21] = 62 g ai/ha, scale 0 to 100 (0 no effect, 100 complete control)
[22] = 125 g ai/ha, scale 0 to 100, 0 no effect, 100 complete control
[23] = 250 g ai/ha, scale 0 to 100 (0 no effect, 100 complete control)

Structure (SMILES): Cc1nn(-c2ccnc(Cl)c2)nc1Cc1ccnc(C(F)(F)F)c1 [Compound 141]
- Plant response rating, Barnyardgrass [1, 8]: 10
- Plant response rating, Barnyardgrass [1, 9]: 20
- Plant response rating, Barnyardgrass [1, 10]: 20
- Plant response rating, Barnyardgrass [1, 11]: 30
- Plant response rating, Barnyardgrass [1, 12]: 40
- Plant response rating, Arrowleaf Sida [2, 8]: 40
- Plant response rating, Arrowleaf Sida [2, 9]: 50
- Plant response rating, Arrowleaf Sida [2, 10]: 60
- Plant response rating, Arrowleaf Sida [2, 11]: 70
- Plant response rating, Arrowleaf Sida [2, 12]: 75
- Plant response rating, Beggarticks [3, 8]: 40
- Plant response rating, Beggarticks [3, 9]: 40
- Plant response rating, Beggarticks [3, 10]: 50
- Plant response rating, Beggarticks [3, 11]: 60
- Plant response rating, Beggarticks [3, 12]: 75

Structure (SMILES): COc1nn(-c2cccc(F)c2)nc1Cc1ccnc(C(F)(F)F)c1 [Compound 139]
- Plant response rating, Lambsquarters [4, 13]: 0
- Plant response rating, Lambsquarters [4, 14]: 20
- Plant response rating, Lambsquarters ([4]; 62 g ai/ha, scale 0 to 100): 65
- Plant response rating, Lambsquarters ([4]; 125 g ai/ha, scale 0 to 100): 90
- Plant response rating, Lambsquarters ([4]; 250 g ai/ha, scale 0 to 100): 98
- Plant response rating, Barnyardgrass [1, 15]: 0
- Plant response rating, Barnyardgrass [1, 16]: 10
- Plant response rating, Barnyardgrass [1, 17]: 10
- Plant response rating, Barnyardgrass [1, 18]: 10
- Plant response rating, Barnyardgrass [1, 19]: 98
- Plant response rating, Arrowleaf Sida [2, 15]: 0
- Plant response rating, Arrowleaf Sida [2, 16]: 0
- Plant response rating, Arrowleaf Sida [2, 17]: 0
- Plant response rating, Arrowleaf Sida [2, 18]: 0
- Plant response rating, Arrowleaf Sida [2, 19]: 0
- Plant response rating, Beggarticks [3, 15]: 0
- Plant response rating, Beggarticks [3, 16]: 0
- Plant response rating, Beggarticks [3, 17]: 0
- Plant response rating, Beggarticks [3, 18]: 0
- Plant response rating, Beggarticks [3, 19]: 0

Structure (SMILES): CCc1nn(-c2ccc(F)cc2)nc1Cc1ccnc(C(F)(F)F)c1 [Compound 154]
- Plant response rating, Lambsquarters [4, 13]: 0
- Plant response rating, Lambsquarters [4, 14]: 30
- Plant response rating, Lambsquarters ([4]; 62 g ai/ha, scale 0 to 100): 75
- Plant response rating, Lambsquarters ([4]; 125 g ai/ha, scale 0 to 100): 98
- Plant response rating, Lambsquarters ([4]; 250 g ai/ha, scale 0 to 100): 98
- Plant response rating, Barnyardgrass [1, 15]: 0
- Plant response rating, Barnyardgrass [1, 16]: 5
- Plant response rating, Barnyardgrass [1, 17]: 85
- Plant response rating, Barnyardgrass [1, 18]: 90
- Plant response rating, Barnyardgrass [1, 19]: 100
- Plant response rating, Arrowleaf Sida [2, 15]: 0
- Plant response rating, Arrowleaf Sida [2, 16]: 0
- Plant response rating, Arrowleaf Sida [2, 17]: 0
- Plant response rating, Arrowleaf Sida [2, 18]: 0
- Plant response rating, Arrowleaf Sida [2, 19]: 0
- Plant response rating, Beggarticks [3, 15]: 0
- Plant response rating, Beggarticks [3, 16]: 0
- Plant response rating, Beggarticks [3, 17]: 0
- Plant response rating, Beggarticks [3, 18]: 0
- Plant response rating, Beggarticks [3, 19]: 15

Structure (SMILES): Cc1nn(-c2ccc(F)cc2F)nc1Oc1ccnc(C(F)(F)F)c1 [Compound 146]
- Plant response rating, Lambsquarters [4, 13]: 0
- Plant response rating, Lambsquarters [4, 14]: 0
- Plant response rating, Lambsquarters ([4]; 62 g ai/ha, scale 0 to 100): 40
- Plant response rating, Lambsquarters ([4]; 125 g ai/ha, scale 0 to 100): 98
- Plant response rating, Lambsquarters ([4]; 250 g ai/ha, scale 0 to 100): 98
- Plant response rating, Barnyardgrass [1, 15]: 0
- Plant response rating, Barnyardgrass [1, 16]: 0
- Plant response rating, Barnyardgrass [1, 17]: 10
- Plant response rating, Barnyardgrass [1, 18]: 10
- Plant response rating, Barnyardgrass [1, 19]: 20
- Plant response rating, Arrowleaf Sida [2, 15]: 0
- Plant response rating, Arrowleaf Sida [2, 16]: 0
- Plant response rating, Arrowleaf Sida [2, 17]: 0
- Plant response rating, Arrowleaf Sida [2, 18]: 0
- Plant response rating, Arrowleaf Sida [2, 19]: 10
- Plant response rating, Beggarticks [3, 15]: 0
- Plant response rating, Beggarticks [3, 16]: 0
- Plant response rating, Beggarticks [3, 17]: 0
- Plant response rating, Beggarticks [3, 18]: 0
- Plant response rating, Beggarticks [3, 19]: 0

Structure (SMILES): Cc1nn(-c2ccc(C(F)(F)F)cn2)nc1Oc1ccnc(C(F)(F)F)c1 [Compound 23]
- Plant response rating, Ducksalad ([5]; Flood (flooded paddy test), 62 g ai/ha, visual rating after 13 to 15 days): 60
- Plant response rating, Ducksalad ([5]; Flood (flooded paddy test), 125 g ai/ha, visual rating after 13 to 15 days): 60
- Plant response rating, Ducksalad ([5]; Flood (flooded paddy test), 250 g ai/ha, visual rating after 13 to 15 days): 85
- Plant response rating, Ducksalad ([5]; Flood, 31 g ai/ha): 50
- Plant response rating: Galium [6, 20]: 30
- Plant response rating: Galium [6, 21]: 50
- Plant response rating: Galium [6, 22]: 70
- Plant response rating: Galium [6, 23]: 90
- Plant response rating, Galium ([6]; 16 g ai/ha, scale 0 to 100): 25
- Plant response rating: Chamomile [7, 20]: 0
- Plant response rating: Chamomile [7, 21]: 0
- Plant response rating: Chamomile [7, 22]: 0
- Plant response rating: Chamomile [7, 23]: 5
- Plant response rating, Chamomile ([7]; 16 g ai/ha, scale 0 to 100): 0
